How the values were obtained:
CD73 = molecular target: T1, CD73 (Homo sapiens, UniProt P21589); assay: Cell-free CD73 enzyme inhibition assay; assay type: biochemical; conditions: recombinant human CD73 0.1 ng/μL, AMP 100 μM, 25 min at 37° C. (FIG. 1A, 1B)
T1 sequence (P21589 27-549): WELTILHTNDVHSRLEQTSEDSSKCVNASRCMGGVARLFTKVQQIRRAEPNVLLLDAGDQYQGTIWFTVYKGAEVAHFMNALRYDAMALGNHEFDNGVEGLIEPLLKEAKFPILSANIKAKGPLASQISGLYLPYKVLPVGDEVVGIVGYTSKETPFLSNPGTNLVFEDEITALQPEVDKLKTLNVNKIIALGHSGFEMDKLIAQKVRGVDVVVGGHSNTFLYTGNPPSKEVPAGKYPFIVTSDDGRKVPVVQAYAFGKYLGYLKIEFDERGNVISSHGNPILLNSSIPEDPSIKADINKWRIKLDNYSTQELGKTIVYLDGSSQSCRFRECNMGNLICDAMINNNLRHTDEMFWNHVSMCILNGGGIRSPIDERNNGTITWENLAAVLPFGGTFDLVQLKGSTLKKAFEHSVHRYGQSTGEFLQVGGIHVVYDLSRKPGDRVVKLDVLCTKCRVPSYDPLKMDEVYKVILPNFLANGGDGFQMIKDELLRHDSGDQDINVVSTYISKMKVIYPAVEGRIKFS
Protocol: The cell-free CD73 enzyme inhibition assay was performed in a 96-well plate format using the CD73 Inhibitor Screening Assay Kit in accordance with the manufacturer's instructions (cat no. 72055, BPS Bioscience). […] Colorimetric detection reagent was then added (100 μL/well) and the free phosphate from the CD73 reaction was measured by reading the absorbance at 630 nm using the EnSpire multimode plate reader (PerkinElmer). Wells without test inhibitor (CD73 positive control) were included on each plate. Blank wells without test inhibitor and CD73 were subtracted from all wells. Percent CD73 inhibition versus inhibitor concentration was plotted using GraphPad Prism Version 8 and IC50's calculated using nonlinear regression analysis (Sigmoidal, 4 PL).
The cell-free CD73 enzyme inhibition assay was performed in a 96-well plate format using the CD73 Inhibitor Screening Assay Kit in accordance with the manufacturer's instructions (BPS Bioscience cat no. 72055). […] Colorimetric detection reagent was then added (100 μL/well) and the free phosphate from the CD73 reaction was measured by reading the absorbance at 630 nm using the EnSpire multimode plate reader (PerkinElmer). Wells without test inhibitor (CD73 positive control) were included on each plate. Blank wells without test inhibitor and CD73 were subtracted from all wells. Percent CD73 inhibition (y-axis) versus log10 inhibitor concentration (x-axis) was plotted using GraphPad Prism Version 8 and IC50's calculated using nonlinear regression analysis (Sigmoidal, 4 PL).

[1] = molecular target: T2, CD73 expressed on the MDA-MB-231 cell surface (Homo sapiens, UniProt P21589); assay: Cell-based CD73 enzyme inhibition assay on MDA-MB-231 cells; conditions: AMP 100 μM, 3 h (FIG. 2)
T2 construct: host or cells: MDA-MB-231
T2 sequence (P21589 27-549): T1 sequence (P21589 27-549)
Protocol: The cell-based CD73 enzyme inhibition assay was performed essentially as described above for the cell-free assay, with the following modifications.
(§1) The cell-based CD73 enzyme inhibition assay was performed essentially as described above for the cell-free assay, with the following modifications. MDA-MB-231 human breast adenocarcinoma cells (ATCC CRM-HTB-26) were seeded at 2×10^4 cells/well/100 μL into 96-well tissue culture-treated plates (Corning Costar cat no. 3596) and incubated overnight at 37° C., 5% CO2. […] The 96-well plate was then centrifuged at 125×g for 5 min at room temperature and ATP (25 μL/well, 100 μM final) was combined with supernatant (25 μL/well) in a white opaque 96-well plate (Corning Costar cat no. 3912).
as §1, with “3912). […] Percent CD73 inhibition (y-axis) versus log10 inhibitor concentration (x-axis) were plotted using GraphPad Prism Version 8 and IC50's calculated using nonlinear regression analysis (Sigmoidal, 4 PL).” for “3912).”

[2] = molecular target: T3, surface-expressed CD73 on human T cells (Homo sapiens, UniProt P21589); assay: Human immune cell-based CD73 enzyme inhibition assay (T cells); conditions: 2.5-3 h
T3 construct: 72400 (T cells); host or cells: human PBMCs / human T cells
T3 sequence (P21589 27-549): T1 sequence (P21589 27-549)
Protocol: (§2) The human immune cell-based CD73 enzyme inhibition assay was performed essentially as described above For the cell-free assay, with the following modifications. Human PBMCs (cat. no. HUMAN-PBMC-U-211140) or T cells (cat. no. 72400, Stem Cell Tech) were seeded at 8×10^3 cells/well into 96-well tissue culture-treated plates. […] Percent CD73 inhibition versus concentration were plotted using GraphPad Prism Version 8 and IC50's calculated using nonlinear regression analysis ([inhibitor]vs normalized response).

[3] = molecular target: T4, surface-expressed CD73 on human PBMCs (Homo sapiens, UniProt P21589); assay: Human immune cell-based CD73 enzyme inhibition assay (PBMCs); conditions: AMP 300 μM, 2.5-3 h
T4 construct: 72400 (T cells); host or cells: human PBMCs / human T cells
T4 sequence (P21589 27-549): T1 sequence (P21589 27-549)
Protocol: as §2

| Compound | IC50 (CD73) | IC50 [1] | IC50 ([2]; T Cells - Experiment 1, AMP 300 μM) | IC50 ([2]; T Cells - Experiment 2, AMP 300 μM) | IC50 [3] |
| --- | --- | --- | --- | --- | --- |
| C#CCOCCOCCOCCOCCOC1CCC2(CC1)CN(c1nc(Cl)nc3c1cnn3[C@@H]1O[C@H](COCP(=O)(O)O)[C@@H](O)[C@H]1O)C2 [Int-258] | 26.1 nM | 41.4 nM | – | – | – |
| O=C(CCOCCOCCOCCOCCn1cc(COCCOCCOCCOCCOC2CCC3(CC2)CN(c2nc(Cl)nc4c2cnn4[C@@H]2O[C@H](COCP(=O)(O)O)[C@@H](O)[C@H]2O)C3)nn1)Oc1c(F)cc(F)cc1F [Int-259] | – | – | 1.47 nM | 0.12 nM | 2.87 nM |

— patent publication US20260000781A1, “FC CONJUGATES INCLUDING AN INHIBITOR OF CD73 AND USES THEREOF” (Cidara Therapeutics, Inc., priority 2022, published 2026)
